Test results published in patent publication US20240182596A1, “ANTI-NAPI2B ANTIBODIES AND ANTIBODY-DRUG-CONJUGATES BASED THEREON, THERAPEUTIC METHODS AND USES THEREOF” (Tubulis GmbH, priority 2022, published 2024).

Tested on: OVCAR-3 cells
Test: In vitro inhibition of Topoisomerase-I by delivery of Exatecan via the ADC (DNA-damage markers)
Format: cell-based
Conditions: 5 μg/mL, 72 h
Method: OVCAR-3 cells were treated with 5 μg/mL TUB-040 or 5 nM free Exatecan for 72 h. Cells were stained with Live/Dead stain and for the DNA-damage markers active caspase-3, cleaved PARP and phosphorylated H2A.X (Ser-139) and analyzed by flow cytometry. Graphs show means of n=2±SEM (FIG. 9).

Substance: TUB-040
- Induction of DNA-damage markers (active caspase-3, cleaved PARP, phosphorylated H2A.X): induces DNA-damage markers
